The target of data set [1] is T1, PARP1 (Homo sapiens, UniProt P09874). The note with it: allosteric-based classification reported earlier; cited from earlier work.
Data set [2] deals with T1, PARP1. Description: PARP1 enzyme inhibition assay. It counts as biochemical. The note with it: for decrease in PARP1 inhibition potency compared to veliparib: relative to veliparib.
For data set [3], the target named is T2, PARP1 WT (UniProt P09874 1-1014). Description: fluorescence polarization.
The target of data set [4] is T2, PARP1 WT. Description: fluorescence polarization. This is another data set of the same source.
Data set [5] has as its target T2, PARP1 WT. Description: fluorescence polarization. This is another data set of the same source.
The target in data set [6] is T2, PARP1 WT. Description: fluorescence polarization. This is another data set of the same source.
Data set [7] concerns the target T2, PARP1 WT. As to the kind of experiment: fluorescence polarization. The source holds these as a separate data set.
The target in data set [8] is T2, PARP1 WT. As to the kind of experiment: fluorescence polarization. The source holds these as a separate data set.
Data set [9] deals with T2, PARP1 WT. As to the kind of experiment: fluorescence polarization. The source holds these as a separate data set.
Data set [10] deals with T2, PARP1 WT. As to the kind of experiment: fluorescence polarization. This is another data set of the same source.
In data set [11] the target is T2, PARP1 WT. Description: fluorescence polarization. The source holds these as a separate data set.
Data set [12] deals with T2, PARP1 WT. Description: fluorescence polarization. The source holds these as a separate data set.
Data set [13] has as its target T2, PARP1 WT. As to the kind of experiment: fluorescence polarization. The source holds these as a separate data set.
For data set [14], the target named is T2, PARP1 WT. Description: fluorescence polarization. This is another data set of the same source.
The target in data set [15] is T2, PARP1 WT. As to the kind of experiment: fluorescence polarization. This is another data set of the same source.
For data set [16], the target named is PARP1 Zn1-Zn3 ΔZn2;PARP1 WGR-CAT ΔVE (Homo sapiens?;Homo sapiens?, UniProt P09874;P09874 1-366;518-1014, del97-206|del687-688). As to the kind of experiment: X-ray crystallography.
Where [17] appears, read: read-out: PARP1 IC50, 10-point concentration-response curve, average of at least two independent experiments.

Where two headings read alike, the source gives them in different places.

`NC(=O)c1cccc([C@@H]2O[C@H](COP(=O)(O)OP(=O)(O)OC[C@H]3O[C@@H](n4cnc5c(N)ncnc54)[C@H](O)[C@@H]3O)[C@@H](O)[C@H]2O)c1` [BAD, benzamide adenine dinucleotide]: the “allosteric PARPi type” value at PARP1 [1] is “Type I”. In the case of `NC(=O)c1cccc2[nH]c(-c3ccc(C(=O)N4CCN(c5ncccn5)CC4)cc3)nc12` [Compound 4, 2-(4-(4-(Pyrimidin-2-yl)piperazine-1-carbonyl)phenyl)-1H-benzo[d]imidazole-4-carboxamide], at PARP1 [2], it took 11.9 nM to reach half-maximal inhibition (IC50) and the “decrease in PARP1 inhibition potency compared to veliparib” value is on record as “approximately nine”. With `NC(=O)c1cccc2[nH]c(-c3cccc(C(=O)N4CCN(c5ncccn5)CC4)c3)nc12` [Compound 5, 2-(3-(4-(Pyrimidin-2-yl)piperazine-1-carbonyl)phenyl)-1H-benzo[d]imidazole-4-carboxamide], on PARP1 [2], the IC50 stood at 8.9 nM. Turning to `NC(=O)c1cccc2[nH]c(-c3ccc(C(=O)N4CCN(c5ncc(C(=O)O)cn5)CC4)cc3)nc12` [Compound 7, Sodium 2-(4-(4-(4-carbamoyl-1H-benzo[d]imidazol-2-yl)benzoyl)piperazin-1-yl)pyrimidine-5-carboxylate], the IC50 on PARP1 [2] was over 10 nM. Besides, the inhibition at 0.01 µM on PARP1 [2] (read-out: PARP1 inhibition at 10 nM) was found to be 37%. In the case of `NC(=O)c1cccc2[nH]c(-c3ccc(C(=O)N4CCN(c5nc6ccccc6[nH]5)CC4)cc3)nc12` [Compound 8, 2-(4-(4-(1H-Benzo[d]imidazol-2-yl)piperazine-1-carbonyl)phenyl)-1H-benzo[d]imidazole-4-carboxamide], at PARP1 [2], the concentration for half-maximal inhibition (IC50) was 6.2 nM. With `NC(=O)c1cccc2[nH]c(-c3cccc(C(=O)N4CCN(c5nc6ccccc6[nH]5)CC4)c3)nc12` [Compound 9, 2-(3-(4-(1H-Benzo[d]imidazol-2-yl)piperazine-1-carbonyl)phenyl)-1H-benzo[d]imidazole-4-carboxamide], the IC50 against PARP1 [2] came out at 3.9 nM. Same read-out and setting: next, `NC(=O)c1cccc2[nH]c(-c3ccc(C(=O)NCCc4nc5ccccc5[nH]4)cc3)nc12` [Compound 10, 2-(4-((2-(1H-Benzo[d]imidazol-2-yl)ethyl)carbamoyl)phenyl)-1H-benzo[d]imidazole-4-carboxamide]: 3.1 nM. Take `NC(=O)c1cccc2[nH]c(-c3cccc(C(=O)NCCc4nc5ccccc5[nH]4)c3)nc12` [Compound 11, 2-(3-((2-(1H-Benzo[d]imidazol-2-yl)ethyl)carbamoyl)phenyl)-1H-benzo[d]imidazole-4-carboxamide]: on PARP1 [2], the IC50 worked out at 121 nM and the “decrease in PARP1 inhibition potency compared to veliparib” value was ~ 100 fold. Regarding `NC(=O)c1cccc2[nH]c(-c3ccc(C(=O)N4CCn5c(nnc5C(F)(F)F)C4)cc3)nc12` [Compound 12, 2-(4-(3-(Trifluoromethyl)-5,6,7,8-tetrahydro-[1,2, 4]triazolo[4,3-a]pyrazine-7-carbonyl)phenyl)-1H-benzo[d]imidazole-4-carboxamide], the IC50 on PARP1 [2] (setting [17]) stood at 25.4 nM.

For the molecule `NC(=O)c1cccc2[nH]c(-c3cccc(C(=O)N4CCn5c(nnc5C(F)(F)F)C4)c3)nc12` [Compound 13, 2-(3-(3-(Trifluoromethyl)-5,6,7,8-tetrahydro-[1,2, 4]triazolo[4,3-a]pyrazine-7-carbonyl)phenyl)-1H-benzo[d]imidazole-4-carboxamide], on PARP1 [2] (setting [17]), the IC50 came out at 25.4 nM.

At PARP1 [2], `Cc1cc(N)c(NC(=O)c2cccc(-c3nc4c(C(N)=O)cccc4[nH]3)c2)cc1C` [Compound 14, 2-(3-((2-Amino-4,5-dimethylphenyl)carbamoyl)phenyl)-1H-benzo[d]imidazole-4-carboxamide] returned an IC50 of 17.3 nM. Consider `Cl.Cl.Nc1ncnc2c1ncn2[C@@H]1O[C@H](C(=O)N2CCN(CC(=O)Nc3cccc4c3CNC4=O)CC2)[C@@H](O)[C@H]1O` [EB-47], for which, on PARP1 [1], the “allosteric PARPi type” value is “Type I”. Regarding `COC(=O)c1cnc(N2CCN(C(=O)c3ccc(-c4nc5c(C(N)=O)cccc5[nH]4)cc3)CC2)nc1` [UKTT15 (6), Methyl 2-(4-(4-(4-carbamoyl-1H-benzo[d]imidazol-2-yl)benzoyl)piperazin-1-yl)pyrimidine-5-carboxylate], at PARP1 [2], it took 2.8 nM to reach half-maximal inhibition (IC50). In addition, at PARP1 [1], the “allosteric PARPi type” value is “Type I”. With `C[C@]1(c2nc3c(C(N)=O)cccc3[nH]2)CCCN1` [Veliparib], the “allosteric PARPi type” value on PARP1 [1] is on record as “Type III”. As to `NC(=O)c1cccc2cn(-c3ccc([C@@H]4CCCNC4)cc3)nc12` [niraparib], the “allosteric PARPi type” value on PARP1 [1] is listed as “Type III”. With `CNCc1ccc(-c2[nH]c3cc(F)cc4c3c2CCNC4=O)cc1` [rucaparib], the “allosteric PARPi type” value at PARP1 [1] is listed as “Type III”.

B1: 18-bp DNA duplex (dsDNA)
DNA 1: GGGTTGCGGCCGCTTGGG
DNA 2: CCCAAGCGGCCGCAACCC
With B1, the Kd stood at 117 ± 16.8 nM with PARP1 WT [3]; 210 ± 25 nM in the data set with PARP1 WT [4]; 4.5 ± 1.7 nM in the data set with PARP1 WT [5]; 47.7 ± 5.4 nM in the data set with PARP1 WT [6]; 62.2 ± 14.6 nM with PARP1 WT [7]; 11.8 ± 4.7 nM with PARP1 WT [8]. Besides, the Kd in the data set with PARP1 WT [9] came to 41.7 ± 11.4 nM; with PARP1 WT [10], 61.9 ± 14.4 nM; in the data set with PARP1 WT [11] it was 29 ± 5.2 nM; in the data set with PARP1 WT [12], 61.7 ± 25.3 nM; with PARP1 WT [13] it was 52.3 ± 3.2 nM; in the data set with PARP1 WT [14] it was 82.1 ± 1.8 nM. Binding in the data set with PARP1 WT [15] was put at a Kd of 112 ± 31.2 nM.

B2: 5-bp DNA duplex (dsDNA)
DNA 1: CGACG
DNA 2: CGTCG
For the molecule B2, in data set [16], the binding result is reported as “binds”.

The record behind these values is paper PMC11070930 (The Biochemical journal, 2024).
